Measured values published in patent US20250064758A1 (priority 2023, published 2025).

Tests used:
Type in all cases: cell-based
[1] = test system: SARS-COV-2 Omicron variant BA.5
[2] = test system: SARS-COV-2 Delta variant B.1.617.2
[3] = test system: SARS-COV-2 Omicron variant BA.4

Structure (SMILES): CC(C)NCC(O)c1ccc(O)c(O)c1 (stereo not drawn) [isoproterenol]
- SARS-CoV-2 replication fitness (viral gene copies in cell supernatant) [1]: didn't affect

Structure (SMILES): CC(C)NCC(O)COc1cccc2ccccc12 (stereo not drawn) [Propranolol, 1-(isopropylamino)-3-(1-naphthyloxy)-2-propanol]
- reduction in viral load [2]: 2-3 log10
- reduction in viral load [3]: 2-3 log10
- reduction in viral load [1]: 2-3 log10

Structure (SMILES): CC(C)(C)NCC(O)COc1cccc2c1CC(O)C(O)C2 (stereo not drawn) [Nadolol]
- SARS-CoV-2 replication fitness (viral gene copies in cell supernatant) [1]: didn't affect

Structure (SMILES): CC(C)NCC(O)COc1ccc(CC(N)=O)cc1 (stereo not drawn) [atenolol]
- SARS-CoV-2 replication fitness (viral gene copies in cell supernatant) [1]: didn't affect
